The text below walks through data of ChEMBL document CHEMBL1201862, “PubChem BioAssay data set” (2004).

Molecules are shown by their SMILES.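 Step 1: Grow cells in 96-well plates. Step 2: Expose to compound for 48 hours at 5 concentrations. Step 3: Interpolate endpoints linearly; if unreached, use highest concentration. Here, GI50 denotes the concentration required for 50% inhibition of growth.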 Activity calls are given as the source filed them. No stated cut-off is given here; in the data, active = GI50 up to about 1.1 µM and inactive = higher.

What all share (experiment): NCI tumour cell line growth inhibition, 48 h
For assay [1], the system named is SW-620.
Assay [2] relates to SK-OV-3.
The test system of assay [3] is EKVX.
The subject of assay [4] is A498.
For assay [5], the system named is OVCAR-8.
Assay [6] relates to SF-539.
For assay [7], the system named is SF-268.
Assay [8] concerns OVCAR-4.
Assay [9] concerns A549.
For assay [10], the system named is HT-29.
Assay [11] relates to UO-31.
Assay [12] deals with HOP-92.
Assay [13] deals with HL-60.
The test system of assay [14] is CAKI-1.
For assay [15], the system named is SK-MEL-2.
Assay [16] deals with MOLT-4.
Assay [17] concerns NCI/ADR-RES.
Assay [18] has as its system MCF7.
The subject of assay [19] is M14.

Turning to `O=c1c2nn3c(=O)n(-c4ccccc4)c(=O)c3nn2c(=O)n1-c1ccccc1`, the GI50 in assay [1] is > 100 µM (inactive); in assay [2], > 100 µM (inactive); in [3], > 100 µM (inactive); in assay [4] it was 50.4 µM (inactive); in assay [5], > 100 µM (inactive); in [6], > 100 µM (inactive). The GI50 in assay [7], in assay [8], in [9], in assay [10], in assay [11] and in [12] was > 100 µM (inactive) throughout. In addition, the GI50 in assay [13], in assay [14], in assay [15], in [16], in [17] and in [18] was > 100 µM (inactive) throughout. The GI50 in assay [19] was > 100 µM (inactive).
Take `COc1cc(-c2cn(S(=O)(=O)c3ccc(C)cc3)c3ccccc23)nc(-c2cn(S(=O)(=O)c3ccc(C)cc3)c3ccccc23)n1`: the GI50 in [1] was 2.9 µM (inactive); in assay [2], 2.25 µM (inactive); in [3], 0.783 µM (active); in assay [4], 1.32 µM (inactive); in assay [5], 0.94 µM (active); in assay [6] it was 0.222 µM (active). For the same molecule, the GI50 is 0.755 µM (active) in [7]; 1.99 µM (inactive) in assay [8]; 0.473 µM (active) in [9]; 0.573 µM (active) in assay [10]; 0.968 µM (active) in assay [11]; 4.98 µM (inactive) in assay [12]. Moreover, the GI50 in assay [13] is 2.19 µM (inactive); in [14] it was 1.3 µM (inactive); in assay [15], 0.984 µM (active); in [16], 0.69 µM (active); in [17] it was 0.746 µM (active); in [18], 0.395 µM (active). Further, in assay [19], the GI50 was 0.478 µM (active).
As for `CC(C)(C)OC(=O)N1C(C2=COc3ccccc3O2)=COc2ccccc21`, the GI50 was 24.3 µM (inactive) in [1]; 29 µM (inactive) in [2]; 16.8 µM (inactive) in assay [3]; 17.1 µM (inactive) in [4]; 28.3 µM (inactive) in assay [5]; 19.3 µM (inactive) in assay [6]. The GI50 in assay [7] is 21.3 µM (inactive); in assay [8], 36.8 µM (inactive); in assay [9], 32.7 µM (inactive); in assay [10] it was 32 µM (inactive); in assay [11], 30 µM (inactive); in [12] it was 19.6 µM (inactive). Besides, the GI50 in [13] is 19 µM (inactive); in assay [14], 38 µM (inactive); in assay [15], 22 µM (inactive); in [16], 17.1 µM (inactive); in assay [17], 27.1 µM (inactive); in [18], 24.2 µM (inactive). In addition, the GI50 in assay [19] was 27.7 µM (inactive).
Consider `CC(=O)[C@H]1CC[C@H]2[C@@H]3CCC4=CC(=O)CC[C@]4(C)[C@H]3CC[C@]12C` [PROGESTERONE], for which the GI50 in assay [1] is 31 µM (inactive); in assay [2] it was 20.4 µM (inactive); in assay [3], 1.16 µM (inactive); in assay [4], 24.5 µM (inactive); in assay [5] it was 18.4 µM (inactive); in assay [6], 17.6 µM (inactive). The GI50 in [7] was 23.2 µM (inactive); in assay [8] it was 18.7 µM (inactive); in [9] it was 25.3 µM (inactive); in assay [10], 15 µM (inactive); in [11], 11.4 µM (inactive); in assay [12], 25.7 µM (inactive). Moreover, the GI50 was 9.98 µM (inactive) in assay [13]; 28.5 µM (inactive) in assay [14]; 20 µM (inactive) in assay [15]; 12.1 µM (inactive) in assay [16]; 13.7 µM (inactive) in [17]; 21.7 µM (inactive) in assay [18]. The GI50 in [19] was 17.5 µM (inactive).
Consider `CC(C)c1[nH]nc(C(N)=O)c1/N=N/N(C)C`, for which the GI50 was > 100 µM (inactive) in assay [1]; 52.5 µM (inactive) in assay [2]; 47.9 µM (inactive) in assay [3]; > 100 µM (inactive) in assay [4]; > 100 µM (inactive) in assay [5]; 69.2 µM (inactive) in assay [6]. The GI50 was 59.8 µM (inactive) in [7]; > 100 µM (inactive) in [8]; 23.7 µM (inactive) in assay [9]; > 100 µM (inactive) in [10]; 0.237 µM (active) in assay [11]; 47.4 µM (inactive) in [12]. The GI50 in [13] was > 100 µM (inactive); in assay [14] it was 16 µM (inactive); in assay [15], > 100 µM (inactive); in [16], 31.9 µM (inactive); in assay [17] it was > 100 µM (inactive); in assay [18], 28.4 µM (inactive). Moreover, the GI50 in [19] was > 100 µM (inactive).
With `CC(=O)c1ccc2c(c1)C(=O)c1sc(C(C)=O)cc1C2=O`, the GI50 in [1] is 0.738 µM (active); in assay [2], 6.98 µM (inactive); in assay [3] it was 1.18 µM (inactive); in assay [4], 21.6 µM (inactive); in assay [5], 0.695 µM (active); in assay [6] it was 0.804 µM (active). Further, the GI50 in [7] is 1.17 µM (inactive); in assay [8], 1.73 µM (inactive); in assay [9], 2.59 µM (inactive); in assay [10], 1.2 µM (inactive); in assay [11], 1.07 µM (active); in assay [12], 1.42 µM (inactive). The GI50 in assay [13] is 0.24 µM (active); in [14], 1.75 µM (inactive); in [15], 1.47 µM (inactive); in assay [16], 0.233 µM (active); in [17] it was 0.906 µM (active); in [18] it was 1.37 µM (inactive). Further, in assay [19], the GI50 is 0.91 µM (active).
Turning to `O=C(/C=C/c1ccco1)CC(=O)/C=C/c1ccco1`, the GI50 is 10.9 µM (inactive) in [1]; > 10 µM (inactive) in [2]; 20.5 µM (inactive) in [3]; 20.9 µM (inactive) in assay [4]; 17.7 µM (inactive) in assay [5]; 13.9 µM (inactive) in assay [6]. Moreover, the GI50 was > 10 µM (inactive) in assay [7]; 15.5 µM (inactive) in assay [8]; 14.4 µM (inactive) in assay [9]; > 10 µM (inactive) in [10]; 13.3 µM (inactive) in [11]; 28.8 µM (inactive) in assay [12]. Further, the GI50 in assay [13] is 5.55 µM (inactive); in [14], 14.7 µM (inactive); in [15], 14.3 µM (inactive); in assay [16], 12 µM (inactive); in [17], 12.8 µM (inactive); in assay [18], 8.32 µM (inactive). For the same molecule, in assay [19], the GI50 was 14.7 µM (inactive).
Take `COc1cc(NCc2ccc3nc(OC)c(OC)nc3c2)cc(OC)c1OC`: the GI50 was > 100 µM (inactive) in [1]; > 100 µM (inactive) in assay [2]; 77.4 µM (inactive) in assay [3]; > 100 µM (inactive) in assay [4]; > 100 µM (inactive) in [5]; > 100 µM (inactive) in [6]. Also, the GI50 in assay [7], in assay [8], in assay [9], in assay [10], in assay [11] and in [12] was > 100 µM (inactive) throughout. Further, the GI50 in [13] is > 100 µM (inactive); in assay [14], > 100 µM (inactive); in [15], > 100 µM (inactive); in assay [16], > 100 µM (inactive); in [17] it was 42.1 µM (inactive); in assay [18], 69.5 µM (inactive). Moreover, the GI50 in assay [19] was > 100 µM (inactive).
